Reference: patent US9056119B2, “VEGF production promoter” (Kao Corporation, priority 2010, dated 2015)

Tested on: VEGF
Test: Effect on production of VEGF: amount of VEGF secreted in culture supernatant, determined by ELISA
Type: cell-based
Conditions: normal human newborn preputial epidermal keratinocytes (NHEK), 16 hours, control defined as 1
Protocol: Normal human newborn preputial epidermal keratinocytes (Kurabo Industries Ltd.: frozen NHEK (F) Lot. No. 061130-902) were used in a test. The cells were inoculated into three six-well microplates at 2×10^4 cells/mL per well. Culture was carried out in Defined keratinocyte-SFM (SFM medium, Gibco) under conditions of 2% CO2 and 37° C. After the cell density reached 50 to 60% confluence, the medium was exchanged for additive-free Defined keratinocyte-SFM medium (SFM (−) medium). The cells were conditioned to the SFM (−) medium for 24 hours, and the medium was then exchanged for an SFM (−) medium supplemented with an arbitrary concentration of the triterpenoid saponin obtained in Example 1. Then, the test was started.
It should be noted that a compound-free SFM (−) medium was used as a negative control. 16 hours after the start of the test, the media were collected, and the amounts of VEGF secreted in the supernatants of the cultures were determined using an ELISA kit (R&D Systems). The amount of VEGF produced in the control was defined as 1, and relative values to the control value were used for evaluation.

Row | SMILES | Relative value of secreted VEGF amount (20 μg/mL) | Relative value of secreted VEGF amount (100 μg/mL) | Relative value of secreted VEGF amount (200 μg/mL)
1 | CC(=O)O[C@H]([C@H]1C[C@@H](C)[C@H]2[C@@](O)(O1)[C@H](O)[C@@]1(C)C3=CCC4C(C)(C)[C@@H](O[C@@H]5OC[C@@H](O)[C@@H](O)C5O)CC[C@@]45C[C@@]35CC[C@]21C)C(C)(C)O (stereo partly drawn) [Compound 1, 7,8-Didehydro-24-O-acetylhydroshengmanol-3-O-β-xyloside] | 2.19 | 3.65 | 5.69
2 | C[C@@H]1C[C@H]2O[C@]3(O[C@H]2C(C)(C)O)[C@H]1[C@@]1(C)CC[C@@]24C[C@@]25CC[C@H](O[C@@H]2OC[C@@H](O)[C@@H](O)C2O)C(C)(C)C5CC=C4[C@]1(C)[C@H]3O (stereo partly drawn) [Compound 2, 24-epi-7,8-Didehydrocimigenol-3-xyloside] | 2.32 | 0.40 | 
3 | C[C@H](CC(=O)C1OC1(C)C)[C@H]1C(=O)C[C@@]2(C)C3=CCC4C(C)(C)[C@@H](O[C@@H]5OC[C@@H](O)[C@@H](O)C5O)CC[C@@]45C[C@@]35C(O)C[C@]12C (some centres unmarked) [Compound 3, Cimicifugoside H-1] | 1.19 | 2.50 | 2.82
